Data from ChEMBL document CHEMBL1151077, “Peptide mimics of glycylproline as inhibitors of prolidase” (Bioorg Med Chem Lett, 1995).
Peptide text beside a SMILES is read from it. * marks the point of attachment. Bz = O=C(c1ccccc1)*

Target: Angiotensin-converting enzyme (Homo sapiens, UniProt P12821+Q9BYF1)
Experiment: Inhibitory activity against angiotensin converting enzyme
Type: protein assay

IC50: 9.4 µM
SMILES: O=C(N[C@@H](Cc1ccccc1)C(=O)NCC(=O)N1CCC[C@H]1C(=O)O)c1ccccc1 (Bz-Phe-Gly-Pro-OH)
